“Also recorded” adds a separate entry of the source. Read-outs that look alike come from different tables or passages of the source.
Legend:
PKD isoforms = assay: Radiometric PKD kinase assay, summary statement for PKD isoforms; type: biochemical, human; conditions: approximate, all PKD isoforms; read-out: concentration that blocked 50% of PKD activity
Experimental: (§1) Recombinant human PKD1, 2, or 3 proteins were incubated in a mixture containing a peptide substrate derived from a PKD substrate, HDAC-5, and 10 different concentrations of the two compounds.

Recombinant human PKD2 = target: T1, Recombinant human PKD2 (Homo sapiens, UniProt Q9BZL6); assay: Radiometric PKD kinase assay, 10-point IC50; type: biochemical
T1 sequence (Q9BZL6 1-878): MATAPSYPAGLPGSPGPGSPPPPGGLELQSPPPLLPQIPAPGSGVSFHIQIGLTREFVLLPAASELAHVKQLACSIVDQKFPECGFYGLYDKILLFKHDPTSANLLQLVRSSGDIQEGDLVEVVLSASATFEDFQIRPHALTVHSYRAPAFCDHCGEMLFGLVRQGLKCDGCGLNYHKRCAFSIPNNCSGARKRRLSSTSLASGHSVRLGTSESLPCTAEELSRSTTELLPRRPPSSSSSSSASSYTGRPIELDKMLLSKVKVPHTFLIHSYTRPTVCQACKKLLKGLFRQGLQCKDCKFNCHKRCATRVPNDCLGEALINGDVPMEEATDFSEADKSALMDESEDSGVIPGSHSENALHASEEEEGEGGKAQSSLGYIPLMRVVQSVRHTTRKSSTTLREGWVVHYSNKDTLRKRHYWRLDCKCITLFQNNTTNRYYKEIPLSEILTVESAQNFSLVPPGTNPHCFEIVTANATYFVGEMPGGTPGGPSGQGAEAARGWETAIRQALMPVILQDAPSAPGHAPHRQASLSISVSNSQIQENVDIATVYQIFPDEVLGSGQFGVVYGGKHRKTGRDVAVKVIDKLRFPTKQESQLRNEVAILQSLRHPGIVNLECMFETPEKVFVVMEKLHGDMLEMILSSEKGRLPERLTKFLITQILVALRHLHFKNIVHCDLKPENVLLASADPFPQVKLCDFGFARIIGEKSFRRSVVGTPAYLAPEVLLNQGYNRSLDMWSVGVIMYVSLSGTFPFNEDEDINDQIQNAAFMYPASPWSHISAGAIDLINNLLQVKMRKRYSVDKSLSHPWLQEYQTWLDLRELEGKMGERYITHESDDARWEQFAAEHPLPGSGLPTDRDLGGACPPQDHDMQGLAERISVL
Experimental: as §1
The IC50 values were calculated as the mean ±SEM of at least three independent experiments with triplicate determinations at each concentration of drug in each experiment. The data were plotted as a function of drug concentration and a representative graph is shown.

[1] = system: PC3 prostate cancer cells; assay: Cell proliferation assay (cell counts); type: cell-based; conditions: 30 µM, starting at day 2 to day 6
Experimental: PKD has emerged as a promising therapeutic target for cancer. […] Cell proliferation was determined by treating the cells at 30 µM concentration of agent, and then cell number was counted for six consecutive days in the presence and absence of inhibitor.
PC3 cells were plated in triplicates in 24-well plates. Cells were allowed to attach overnight. […] Cells were counted daily for a total of 5 days. Fresh media and inhibitor were added every 2 days. The means of triplicate determinations were plotted over time. The experiment was repeated twice and results from one representative experiment are shown. […] PC3 cells were seeded into 96-well plates (3000 cells/well) and were then incubated in media containing 0.3–100 µM inhibitors for 72 h. MTT solution was added to each well and incubated for 4 h. Optical density was read at 570 nm to determine cell viability. The IC50 was determined as the mean of two independent experiments for each compound. C. […] Cell cycle distribution was determined by flow cytometry after propidium iodide labeling of fixed cells. Statistical significance was determined by unpaired t-test and is indicated. **, p<0.01; ***, p<0.001. […]
Proliferation of PC3 cells was measured by counting the number of viable cells upon trypan blue staining as previously described. […] The labeled cells were analyzed using a FACSCalibur flow cytometer (BD Biosciences).

CAMKIIα = target: T2, CAMKIIα (Homo sapiens, UniProt Q9UQM7); assay: In vitro radiometric CAMK kinase assay; type: biochemical; conditions: up to 10 µM
T2 construct: purchased SignalChem (Richmond, BC, Canada)
Experimental: The PKC kinase assay was carried out by co-incubating 1 µCi [γ-^32P]ATP, 20 µM ATP, 50 ng of purified PKCα or PKCδ and 5 µg of myelin basic protein 4–14, 0.25 mg/mL bovine serum albumin, 0.1 mg/mL phosphatidylcholine/phosphatidylserine (80/20%) (1 µM), 1 µM phorbol dibutyrate in 50 µL of kinase buffer containing 50 mM Tris-HCl, pH 7.5, 4 mM MgCl2 and 10 mM β-mercaptoethanol. For the CAMK assay, 50 ng of CAMKIIα and 2 µg syntide-2 substrate in 50 µL kinase buffer were incubated with 0.1 mM MgCl2, 1 µCi of [γ-^32P] ATP, 70 µM ATP. 0.5 mM CaCl2 and 30 ng/µL calmodulin were preincubated for 15 min on ice and then added in the kinase reaction. The reactions were incubated at 30°C for 10 min and 25 µL of the reaction was spotted on Whatman P81 filter paper. The filter paper was washed 3 times in 0.5% phosphoric acid, air dried and counted using Beckman LS6500 multipurpose scintillation counter.

DU145 cells = assay: Matrigel invasion assay; type: cell-based; conditions: Homo sapiens, DU-145, 20 h, read-out: inhibition of cell invasion compared with control
Experimental: A.1-NA- PP1 blocked prostate cancer cell migration. PC3 cells were grown to confluence in 6-well plates. Monolayer was wounded and imaged immediately (0 h). […] Percentage wound healing was calculated as the percent of healed wound area as compared to the original wound. […] After 20 h, noninvasive cells were removed and invasive cells were fixed in 100% methanol, stained in 0.4% hematoxylin solution, and photographed. The number of cells that invaded the Matrigel matrix was determined by cell counts in 6 fields relative to the number of cells that migrated through the control insert. Percentage invasion was calculated as the percent of the cells invaded through Matrigel inserts vs. the total cells migrated through the control inserts. C. […] DU145 cells were infected with null, PKD1, and PKD3 adenoviruses (Adv-null, Adv-PKD1, and Adv-PKD3) at 100 MOI. […]
DU145 cells (4.0×10^4 cells/ml) in RPMI containing 0.1% fetal bovine serum (FBS) were seeded into the top chamber of BioCoat control inserts (pore size 8 µm) or BioCoat Matrigel invasion inserts with Matrigel-coated filters (BD Pharmingen). […] After staining, cells were counted under a microscope (200× magnification). The percentage invasion was determined by cell counts in […] of the number of cells that invaded the Matrigel matrix relative to the number of cells that migrated through the control insert.

IC50 (Recombinant human PKD2; mean ± SEM, read-out: IC50 PKD2) [nM] | IC50 (Recombinant human PKD2; value in the figure, representative graph, read-out: PKD2 IC50) [nM] | Compound | IC50 (PKD isoforms) [nM] | IC50 (Recombinant human PKD2; IC50 PKD2, mean ± SEM) [nM] | IC50 (Recombinant human PKD2; PKD2 IC50, value printed in the figure, representative graph) [nM] | effect on PC3 cell proliferation (cell counts) [1] | inhibition of CAMKIIα, in words (CAMKIIα) | inhibition at 30 µM (DU145 cells) [%]
– | – | CC(C)(C)n1nc(-c2cccc3ccccc23)c2c(N)ncnc21 [Compound 1-NA-PP1, 1-(t-Butyl)-3-(naphthalen-1-yl)-1H-pyrazolo[3,4-d]pyrimidin-4-amine] | ~100 | 133 | 133 | drastic growth arrest | little activity; also recorded: did not significantly inhibit | > 60
115 | 108 | O=C(c1ccc(Nc2nccc(-c3cc4ccccc4s3)n2)cc1)N1CCC(N2CCCC2)CC1 [IKK-16, reference compound] | – | – | – | – | almost completely abrogated its activity | –
